The text below walks through data of PMC6054517, “Design and synthesis of novel oridonin analogues as potent anticancer agents” (Journal of Enzyme Inhibition and Medicinal Chemistry, 2018).

One assay concerns AGS. The experiment in a line: MTT antiproliferative assay, AGS cells. The format is cell-based, human. The following applies: 48 h, MTT, means ± SD, n = 3. From the text: (§1) Human gastric cancer (AGS), human differentiation of advanced gastric cancer (MGC803), human colorectal cancer (HCT116), human lung cancer (A549), human hepatocellular carcinoma (Bel7402) and human cervical cancer (HeLa) cell lines were obtained from the State Key Laboratory of Natural Resources and Functional Molecules of the Changbai Mountain (Yanbian University) and maintained in Dulbecco’s modified Eagle’s medium and RPMI Media 1640 (RPMI1640), supplemented with 10% foetal bovine serum 100 IU/ml penicillin, […] and 2 mmol/l L-glutamine (Sigma) at 37 °7 in a humidified atmosphere containing 5% CO2.
(§2) All six human cancer cell lines and normal L02 cells were seeded in 96-well plates at the appropriate densities to ensure exponential growth throughout the experimental period (9 × 10^3 cells per well) and then allowed to adhere for 24 h. The cells were then treated for 48 h with four serial dilutions (100, 50, 10, and 1 µM) of each compound. 5-Fluorouracil (5-FU) was used as the positive control. After incubation for 48 h, 10 µl MTT solution was added to each well to give a final concentration of 2 mg ml^−1. The plates were then incubated for further 4 h. After incubation, the MTT solution was removed and 150 µl DMSO was added to each well to solubilise the formed product. To ensure complete solubilisation, the plates were shaken vigorously for 10 min at room temperature. The optometric density (OD) was read on a microplate reader (ELx800, BioTek, Highland Park, Winooski, VT) at a wavelength of 492 nm and the data were subsequently analysed. The percentage of cell growth inhibition was calculated from the following equation: inhibitory rate (%) = [1–(ODtreated–ODblank)/(ODcontrol–ODblank)] × 100.
(§3) The MTT assay was performed using a standard protocol.

For the next assay, the system named is MGC803. Description: MTT antiproliferative assay, MGC803 cells. The format is cell-based, human. The conditions noted are these: MTT, 48 h, means ± SD, n = 3.
Description: as §1, §2, §3
In general terms: Formazan colour is commonly taken as a measure of viable cells.

A further assay deals with HCT116. Description: MTT antiproliferative assay, HCT116 cells. The format is cell-based, human. The following applies: MTT, 48 h, means ± SD, n = 3.
Description: as §1, §2, §3

The subject of a further assay is Hela. Description: MTT antiproliferative assay, HeLa cells. The format is cell-based, human. The following applies: MTT, 48 h, means ± SD, n = 3.
Description: as §1, §2, §3

The subject of the next assay is A549. Description: MTT antiproliferative assay, A549 cells. It is filed as cell-based, human. The following applies: MTT, 48 h, means ± SD, n = 3.
Description: as §1, §2, §3

The next assay has as its system Bel7402. The experiment in a line: MTT antiproliferative assay, Bel7402 cells. It is filed as cell-based, human. The following applies: MTT, 48 h, means ± SD, n = 3.
Description: as §1, §2, §3

Assay [1] relates to AGS, MGC803, Bel7402, HCT116, A549, and HeLa. The experiment in a line: MTT assay, overall statement on six tumour cell lines. It is filed as cell-based, human. The conditions noted are these: six cancer cell lines.
Description: as §1, §2, §3

A further assay has as its system A549 cells. The conditions noted are these: cited from earlier work.

Like-named read-outs stand apart in the source and are kept apart here.

Usually IC50 stands for the concentration at which inhibition is half-maximal. On to `CC(C)=CCOc1cccc(/C=C2/C(=O)[C@]34[C@H](O)[C@H]2CC[C@H]3C23CO[C@]4(O)[C@@H](O)[C@@H]2C(C)(C)CC[C@@H]3O)c1` [Compound 2q, (1S,4aR,5S,6S,6aR,9S,11aS,14R,E)-1,5,6,14-tetrahydroxy-4,4-dimethyl-8-(3-((3-methylbut-2-en1yl)oxy)benzylidene)decahydro-1H-6,11b-(epoxymethano)-6a,9-methanocyclohepta[a]naphthalen-7(8H)-one], for which the IC50 amounted to 3.1 ± 0.41 µM in the assay on AGS (Homo sapiens, AGS); 9.1 ± 1.72 µM in the assay with MGC803 (Homo sapiens, MGC-803); 7.63 ± 0.81 µM with HCT116 (Homo sapiens, HCT-116, 48 h); 5.43 ± 0.85 µM in the assay on Hela (Homo sapiens, HeLa); 4.66 ± 0.3 µM with A549 (Homo sapiens, A549); 8.62 ± 1.12 µM in the assay with Bel7402 (Homo sapiens, Bel-7402).

For the compound `CC1(C)CC[C@H](O)C23CO[C@](O)([C@@H](O)[C@H]12)[C@]12C(=O)/C(=C/c4ccc(N)cc4)[C@H](CC[C@@H]31)[C@H]2O` [Compound 2s, (1S,4aR,5S,6S,6aR,9S,11aS,14R,E)-8-(4-aminobenzylidene)-1,5,6,14-tetrahydroxy-4,4-dimethyldecahydro-1H-6,11b-(epoxymethano)-6a,9-methanocyclohepta[a]-naphthalen-7(8H)-one], the 50% inhibitory concentration (IC50) was 51 ± 3.34 µM in the assay on AGS (Homo sapiens, AGS); 53.2 ± 4.05 µM in the assay on MGC803 (Homo sapiens, MGC-803); 10 ± 1.13 µM in the assay on HCT116 (Homo sapiens, HCT-116, 48 h); above 100 µM in the assay with Hela (Homo sapiens, HeLa); 99.8 ± 7.45 µM in the assay with A549 (Homo sapiens, A549); 7 ± 1.05 µM in the assay on Bel7402 (Homo sapiens, Bel-7402). The “antiproliferative activities against the six tumour cell lines (in words)” value (“antiproliferative activities” for short) in assay [1] is listed as “poor antiproliferative activities”.

In the case of `CC(=O)Nc1ccc(/C=C2/C(=O)[C@]34[C@H](O)[C@H]2CC[C@H]3C23CO[C@]4(O)[C@@H](O)[C@@H]2C(C)(C)CC[C@@H]3O)cc1` [Compound 2t, N-(4-((E)-((1S,4aR,5S,6S,6aR,9S,11aS,14R)-1,5,6,14-tetrahydroxy-4,4-dimethyl-7-oxodecahydro-1H-6,11b-(epoxymethano)-6a,9-methanocyclohepta[a]naphthalen-8(7H)-ylidene)methyl)phenyl)acetamide], the IC50 was 22.1 ± 1.04 µM with AGS (Homo sapiens, AGS); 10 ± 0.84 µM in the assay with MGC803 (Homo sapiens, MGC-803); 47.9 ± 3.91 µM in the assay with HCT116 (Homo sapiens, HCT-116, 48 h); above 100 µM with Hela (Homo sapiens, HeLa); 97.1 ± 5.93 µM in the assay with A549 (Homo sapiens, A549); 14.6 ± 1.66 µM in the assay on Bel7402 (Homo sapiens, Bel-7402). Further, in assay [1], the “antiproliferative activities” value is recorded as “poor antiproliferative activities”.

With `CC1(C)CC[C@H](O)C23CO[C@](O)([C@@H](O)[C@H]12)[C@]12C(=O)/C(=C/c4ccc(NC(=O)c5ccccc5)cc4)[C@H](CC[C@@H]31)[C@H]2O` [Compound 2u, N-(4-((E)-((1S,4aR,5S,6S,6aR,9S,11aS,14R)-1,5,6,14-tetrahydroxy-4,4-dimethyl-7-oxodecahydro-1H-6,11b-(epoxymethano)-6a,9-methanocyclohepta[a]naphthalen-8(7H)-ylidene)methyl)phenyl)benzamide], the IC50 came to 12 ± 1.99 µM with AGS (Homo sapiens, AGS); 12.2 ± 0.94 µM with MGC803 (Homo sapiens, MGC-803); 4.02 ± 0.33 µM with HCT116 (Homo sapiens, HCT-116, 48 h); 9.79 ± 1.08 µM in the assay on Hela (Homo sapiens, HeLa); 21.5 ± 1.88 µM in the assay with A549 (Homo sapiens, A549); 7.35 ± 1.28 µM in the assay on Bel7402 (Homo sapiens, Bel-7402).

Consider `CC1(C)CC[C@H](O)C23CO[C@](O)([C@@H](O)[C@H]12)[C@]12C(=O)/C(=C/c4ccccc4O)[C@H](CC[C@@H]31)[C@H]2O` [Compound 2v, (1S,4aR,5S,6S,6aR,9S,11aS,14R,E)-1,5,6,14-tetrahydroxy-8-(2-hydroxybenzylidene)-4,4-dimethyldecahydro-1H-6,11b-(epoxymethano)-6a,9-methanocyclohepta[a]naphthalen-7(8H)-one], for which the IC50 was 30.3 ± 2.24 µM with AGS (Homo sapiens, AGS); 32.9 ± 2.31 µM with MGC803 (Homo sapiens, MGC-803); 28.2 ± 2.67 µM in the assay on HCT116 (Homo sapiens, HCT-116, 48 h); above 100 µM in the assay with Hela (Homo sapiens, HeLa); above 100 µM with A549 (Homo sapiens, A549); 60.3 ± 4.14 µM in the assay on Bel7402 (Homo sapiens, Bel-7402). In assay [1], the “antiproliferative activities” value is recorded as “poor antiproliferative activities”.

In the case of `CC1(C)CC[C@H](O)C23CO[C@](O)([C@@H](O)[C@H]12)[C@]12C(=O)/C(=C/c4cccc(O)c4)[C@H](CC[C@@H]31)[C@H]2O` [Compound 2w, (1S,4aR,5S,6S,6aR,9S,11aS,14R,E)-1,5,6,14-tetrahydroxy-8-(3-hydroxybenzylidene)-4,4-dimethyldecahydro-1H-6,11b-(epoxymethano)-6a,9-methanocyclohepta[a]naphthalen-7(8H)-one], the concentration for half-maximal inhibition (IC50) with AGS (Homo sapiens, AGS) is above 100 µM; in the assay on MGC803 (Homo sapiens, MGC-803), above 100 µM; with HCT116 (Homo sapiens, HCT-116, 48 h), 22.1 ± 3.28 µM; in the assay with Hela (Homo sapiens, HeLa), above 100 µM; with A549 (Homo sapiens, A549), above 100 µM; in the assay with Bel7402 (Homo sapiens, Bel-7402), above 100 µM. For the same compound, the “antiproliferative activities” value in assay [1] is on record as “poor antiproliferative activities”.

On to `CC1(C)CC[C@H](O)C23CO[C@](O)([C@@H](O)[C@H]12)[C@]12C(=O)/C(=C/c4ccc(O)cc4)[C@H](CC[C@@H]31)[C@H]2O` [Compound 2x, (1S,4aR,5S,6S,6aR,9S,11aS,14R,E)-1,5,6,14-tetrahydroxy-8-(4-hydroxybenzylidene)-4,4-dimethyldecahydro-1H-6,11b-(epoxymethano)-6a,9-methanocyclohepta[a]naphthalen-7(8H)-one], for which the IC50 in the assay on AGS (Homo sapiens, AGS) is above 100 µM; in the assay on MGC803 (Homo sapiens, MGC-803) it was above 100 µM; in the assay on HCT116 (Homo sapiens, HCT-116, 48 h) it was 30.1 ± 3.57 µM; in the assay with Hela (Homo sapiens, HeLa), above 100 µM; with A549 (Homo sapiens, A549), above 100 µM; with Bel7402 (Homo sapiens, Bel-7402) it was above 100 µM. In addition, in assay [1], the “antiproliferative activities” value is given as “poor antiproliferative activities”.

For the compound `CC1(C)CCC(O)C23COC(O)(C(O)C12)C12C(=O)C(=Cc4ccc5ccccc5c4)C(CCC31)C2O` [Compound 2y, (1S,4aR,5S,6S,6aR,9S,11aS,14R,E)-1,5,6,14-tetrahydroxy-4,4-dimethyl-8-(napht-halen-2-ylmethylene)decahydro-1H-6,11b-(epoxymethano)-6a,9-methanocyclohepta[a]naphthalen-7(8H)-one], the IC50 came out at 55 ± 4.43 µM in the assay on AGS (Homo sapiens, AGS); 21 ± 1.24 µM in the assay with MGC803 (Homo sapiens, MGC-803); 17.5 ± 1.44 µM in the assay with HCT116 (Homo sapiens, HCT-116, 48 h); 26 ± 1.48 µM in the assay on Hela (Homo sapiens, HeLa); 12.6 ± 1.39 µM with A549 (Homo sapiens, A549); 51.2 ± 5.43 µM with Bel7402 (Homo sapiens, Bel-7402).

On to `C/C1=C\[C@H]2OC(=O)/C(=C/c3ccc(Cl)cc3)[C@@H]2CC/C(C)=C/CC1` [Compound 3], for which the IC50 with A549 cells (A549 cells) is 15.7 µM.

With `O=c1[nH]cc(F)c(=O)[nH]1` [Compound 5-FU, 5-Fluorouracil, reference compound], the IC50 amounted to 29.6 ± 3.4 µM in the assay with AGS (Homo sapiens, AGS); 30.5 ± 4.42 µM with MGC803 (Homo sapiens, MGC-803); 24.8 ± 2.08 µM in the assay on HCT116 (Homo sapiens, HCT-116, 48 h); 34.6 ± 3.14 µM with Hela (Homo sapiens, HeLa); 23.7 ± 3.14 µM with A549 (Homo sapiens, A549); 21.3 ± 2.43 µM in the assay with Bel7402 (Homo sapiens, Bel-7402).

Regarding `CCOc1cccc2c1OC(C(=O)/C=C/c1ccc(N(C)C)cc1)C2` (centres unmarked) [Compound 5], the IC50 with A549 cells (A549) is 9 µM.

For `C=C1C(=O)O[C@@H]2/C=C(\C)CC/C=C(\C)CC[C@@H]12` [Costunolide], in the assay with A549 cells (A549 cells), the 50% inhibitory concentration (IC50) is 39.8 µM.

With “(1S,4aR,5S,6S,6aR,9S,11aS,14R,E)-8-(4-(((Z)-3,6-dimethylhepta-2,5-dien1yl)oxy)benzylidene)-1,5,6,14-tetrahydroxy-4,4-dimethyldecahydro-1H-6,11b-(epoxymethano)-6a,9-methanocyclohepta[a]naphthalen-7(8H)-one [Compound 2r]”, the half-maximal inhibitory concentration (IC50) is 13.7 ± 2.63 µM in the assay on AGS; 6.86 ± 1.24 µM with MGC803; 2.39 ± 0.19 µM in the assay on HCT116; 9.85 ± 2.03 µM with Hela; 4.16 ± 0.45 µM in the assay on A549; 8.45 ± 1.32 µM in the assay with Bel7402.
